Source: patent US10760110B2, “Antibiotic testing and screening system” (priority 2017, dated 2020)
≈ marks a conversion by molar mass, not a printed value. Read-outs that look alike come from different tables or passages of the source.

Tests used:
Details in all cases: Klebsiella pneumoniae
[1] = test system: K. pneumoniae NVT1001 and its ΔompK35/36 and/or ΔramR mutants; assay: Etest MIC, OmpK35/36 loss and AcrAB-TolC overexpression (ΔramR) strains (Table 6); type: cell-based, Klebsiella pneumoniae
Method in brief: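 First, Etest determined each antibiotic's MIC, and intermediate results were adjusted upward to the next doubling dilution. Next, ceftazidime and cefotaxime were titrated in broth according to CLSI recommendations. Finally, results were interpreted with CLSI 2017 breakpoints, substituting CLSI 2015 for cephalothin and EUCAST 2017 for moxifloxacin.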

[2] = test system: K. pneumoniae NVT1001 ΔramRΔompK35/36 mutant and its revertants; assay: Etest MIC, ΔramRΔompK35/36 mutant and its revertants (Table 7); type: cell-based
[3] = test system: K. pneumoniae NVT1001 strains with carbapenemase plasmids; assay: Etest MIC of β-lactams, OmpK35/36 loss, ΔramR and/or carbapenemase (Table 9); type: cell-based, Klebsiella pneumoniae
Method in brief: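 Etest MICs, with values between standard dilutions rounded up to the next two-fold step, were measured in K. pneumoniae NVT1001 carrying PCR-cloned resistance genes on pACYC177 or pACYC184 plasmids. Interpretation used CLSI 2017 breakpoints, CLSI 2015 for cephalothin and EUCAST 2017 for moxifloxacin. For the blaOXA-48 strain, ceftazidime and cefotaxime were additionally tested by CLSI broth microdilution.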

**Q.** CO/N=C(\C(=O)N[C@@H]1C(=O)N2C(C(=O)[O-])=C(C[N+]3(C)CCCC3)CS[C@H]12)c1csc(N)n1 [Cefepime] was tested. Which MIC ([1]; WT, NVT1001, read-out: MIC) did it give?
**A.** 0.06 µg/mL (≈ 0.125 µM)

**Q.** And the MIC ([1]; Δ35, ΔompK35 mutant)?
**A.** 0.125 µg/mL (≈ 0.26 µM)

**Q.** What about the MIC ([1]; Δ35/36, ΔompK35/36 mutant) of the same molecule?
**A.** 1 µg/mL (≈ 2.08 µM)

**Q.** And the MIC ([1]; Δ36, ΔompK36 mutant)?
**A.** 0.125 µg/mL (≈ 0.26 µM)

**Q.** What about the MIC ([1]; ΔramR mutant) of the same molecule?
**A.** 0.5 µg/mL (≈ 1.04 µM)

**Q.** What about the MIC ([1]; ΔramRΔ35, ΔramRΔompK35 mutant) of the same molecule?
**A.** 0.5 µg/mL (≈ 1.04 µM)

**Q.** And the MIC ([1]; ΔramRΔ35/36, ΔramRΔompK35/36 mutant)?
**A.** 2 µg/mL (≈ 4.16 µM)

**Q.** And the MIC ([1]; ΔramRΔ36, ΔramRΔompK36 mutant)?
**A.** 4 µg/mL (≈ 8.32 µM)

**Q.** And the MIC ([2]; ΔramRΔompK35/36::ompK35/36 revertant)?
**A.** 0.5 µg/mL

**Q.** What about the MIC ([2]; ΔramRΔompK35/36::ompK35 revertant) of the same molecule?
**A.** 2 µg/mL

**Q.** And the MIC ([2]; ΔramRΔompK35/36::ompK36 revertant)?
**A.** 0.5 µg/mL

**Q.** What about the MIC ([2]; ΔramRΔompK35/36::ramR revertant) of the same molecule?
**A.** 1 µg/mL

**Q.** And the MIC ([2]; ΔramRΔompK35/36::ramR::ompK35/36 revertant)?
**A.** 0.06 µg/mL

**Q.** What about the MIC ([2]; ΔramRΔompK35/36::ramR::ompK35 revertant) of the same molecule?
**A.** 0.125 µg/mL

**Q.** And the MIC ([2]; ΔramRΔompK35/36::ramR::ompK36 revertant)?
**A.** 0.125 µg/mL

**Q.** What about the MIC ([2]; ΔramRΔompK35/36 mutant) of the same molecule?
**A.** 2 µg/mL

**Q.** What about the MIC ([3]; IMP-8 on pACYC177, WT (NVT1001), read-out: MIC) of the same molecule?
**A.** 16 µg/mL

**Q.** And the MIC ([3]; IMP-8 on pACYC177, Δ35 (ΔompK35 mutant))?
**A.** 32 µg/mL

**Q.** And the MIC ([3]; IMP-8 on pACYC177, Δ35/36 (ΔompK35/36 mutant))?
**A.** > 256 µg/mL

**Q.** And the MIC ([3]; IMP-8 on pACYC177, Δ36 (ΔompK36 mutant))?
**A.** 64 µg/mL

**Q.** What about the MIC ([3]; IMP-8 on pACYC177, ΔramR mutant) of the same molecule?
**A.** 32 µg/mL

**Q.** And the MIC ([3]; IMP-8 on pACYC177, ΔramRΔ35 (ΔramRΔompK35 mutant))?
**A.** 64 µg/mL

**Q.** What about the MIC ([3]; IMP-8 on pACYC177, ΔramRΔ35/36 (ΔramRΔompK35/36 mutant)) of the same molecule?
**A.** 128 µg/mL

**Q.** And the MIC ([3]; IMP-8 on pACYC177, ΔramRΔ36 (ΔramRΔompK36 mutant))?
**A.** 128 µg/mL

**Q.** And the MIC ([3]; KPC-2 on pACYC177, WT (NVT1001), read-out: MIC)?
**A.** 64 µg/mL

**Q.** And the MIC ([3]; KPC-2 on pACYC177, Δ35 (ΔompK35 mutant))?
**A.** 64 µg/mL

**Q.** What about the MIC ([3]; KPC-2 on pACYC177, Δ35/36 (ΔompK35/36 mutant)) of the same molecule?
**A.** > 256 µg/mL

**Q.** And the MIC ([3]; KPC-2 on pACYC177, Δ36 (ΔompK36 mutant))?
**A.** 64 µg/mL

**Q.** And the MIC ([3]; KPC-2 on pACYC177, ΔramR mutant)?
**A.** 64 µg/mL

**Q.** And the MIC ([3]; KPC-2 on pACYC177, ΔramRΔ35 (ΔramRΔompK35 mutant))?
**A.** 64 µg/mL

**Q.** What about the MIC ([3]; KPC-2 on pACYC177, ΔramRΔ35/36 (ΔramRΔompK35/36 mutant)) of the same molecule?
**A.** > 256 µg/mL

**Q.** What about the MIC ([3]; KPC-2 on pACYC177, ΔramRΔ36 (ΔramRΔompK36 mutant)) of the same molecule?
**A.** > 256 µg/mL

**Q.** What about the MIC ([3]; KPC-3 on pACYC177, WT (NVT1001), read-out: MIC) of the same molecule?
**A.** 128 µg/mL

**Q.** And the MIC ([3]; KPC-3 on pACYC177, Δ35 (ΔompK35 mutant))?
**A.** 128 µg/mL

**Q.** And the MIC ([3]; KPC-3 on pACYC177, Δ35/36 (ΔompK35/36 mutant))?
**A.** > 256 µg/mL

**Q.** And the MIC ([3]; KPC-3 on pACYC177, Δ36 (ΔompK36 mutant))?
**A.** 256 µg/mL

**Q.** What about the MIC ([3]; KPC-3 on pACYC177, ΔramR mutant) of the same molecule?
**A.** 128 µg/mL

**Q.** What about the MIC ([3]; KPC-3 on pACYC177, ΔramRΔ35 (ΔramRΔompK35 mutant)) of the same molecule?
**A.** 128 µg/mL

**Q.** What about the MIC ([3]; KPC-3 on pACYC177, ΔramRΔ35/36 (ΔramRΔompK35/36 mutant)) of the same molecule?
**A.** > 256 µg/mL

**Q.** And the MIC ([3]; KPC-3 on pACYC177, ΔramRΔ36 (ΔramRΔompK36 mutant))?
**A.** > 256 µg/mL

**Q.** What about the MIC ([3]; NDM-1 on pACYC177, WT (NVT1001), read-out: MIC) of the same molecule?
**A.** 32 µg/mL

**Q.** And the MIC ([3]; NDM-1 on pACYC177, Δ35 (ΔompK35 mutant))?
**A.** 128 µg/mL

**Q.** What about the MIC ([3]; NDM-1 on pACYC177, Δ35/36 (ΔompK35/36 mutant)) of the same molecule?
**A.** > 256 µg/mL

**Q.** What about the MIC ([3]; NDM-1 on pACYC177, Δ36 (ΔompK36 mutant)) of the same molecule?
**A.** > 256 µg/mL

**Q.** What about the MIC ([3]; NDM-1 on pACYC177, ΔramR mutant) of the same molecule?
**A.** > 256 µg/mL

**Q.** What about the MIC ([3]; NDM-1 on pACYC177, ΔramRΔ35 (ΔramRΔompK35 mutant)) of the same molecule?
**A.** 256 µg/mL

**Q.** And the MIC ([3]; NDM-1 on pACYC177, ΔramRΔ35/36 (ΔramRΔompK35/36 mutant))?
**A.** > 256 µg/mL

**Q.** And the MIC ([3]; NDM-1 on pACYC177, ΔramRΔ36 (ΔramRΔompK36 mutant))?
**A.** > 256 µg/mL

**Q.** And the MIC ([3]; OXA-48 on pACYC177, WT (NVT1001), read-out: MIC)?
**A.** 0.5 µg/mL

**Q.** What about the MIC ([3]; OXA-48 on pACYC177, Δ35 (ΔompK35 mutant)) of the same molecule?
**A.** 1 µg/mL

**Q.** What about the MIC ([3]; OXA-48 on pACYC177, Δ35/36 (ΔompK35/36 mutant)) of the same molecule?
**A.** 8 µg/mL

**Q.** What about the MIC ([3]; OXA-48 on pACYC177, Δ36 (ΔompK36 mutant)) of the same molecule?
**A.** 1 µg/mL

**Q.** And the MIC ([3]; OXA-48 on pACYC177, ΔramR mutant)?
**A.** 1 µg/mL

**Q.** And the MIC ([3]; OXA-48 on pACYC177, ΔramRΔ35 (ΔramRΔompK35 mutant))?
**A.** 1 µg/mL

**Q.** And the MIC ([3]; OXA-48 on pACYC177, ΔramRΔ35/36 (ΔramRΔompK35/36 mutant))?
**A.** 8 µg/mL

**Q.** What about the MIC ([3]; OXA-48 on pACYC177, ΔramRΔ36 (ΔramRΔompK36 mutant)) of the same molecule?
**A.** 8 µg/mL

**Q.** And the MIC ([3]; VIM-1 on pACYC177, WT (NVT1001), read-out: MIC)?
**A.** 128 µg/mL

**Q.** And the MIC ([3]; VIM-1 on pACYC177, Δ35 (ΔompK35 mutant))?
**A.** 256 µg/mL

**Q.** What about the MIC ([3]; VIM-1 on pACYC177, Δ35/36 (ΔompK35/36 mutant)) of the same molecule?
**A.** > 256 µg/mL

**Q.** What about the MIC ([3]; VIM-1 on pACYC177, Δ36 (ΔompK36 mutant)) of the same molecule?
**A.** > 256 µg/mL

**Q.** What about the MIC ([3]; VIM-1 on pACYC177, ΔramR mutant) of the same molecule?
**A.** > 256 µg/mL

**Q.** And the MIC ([3]; VIM-1 on pACYC177, ΔramRΔ35 (ΔramRΔompK35 mutant))?
**A.** > 256 µg/mL

**Q.** What about the MIC ([3]; VIM-1 on pACYC177, ΔramRΔ35/36 (ΔramRΔompK35/36 mutant)) of the same molecule?
**A.** > 256 µg/mL

**Q.** What about the MIC ([3]; VIM-1 on pACYC177, ΔramRΔ36 (ΔramRΔompK36 mutant)) of the same molecule?
**A.** > 256 µg/mL

**Q.** What about the MIC ([3]; no supplemental plasmid, WT (NVT1001), read-out: MIC) of the same molecule?
**A.** 0.06 µg/mL

**Q.** And the MIC ([3]; no supplemental plasmid, Δ35 (ΔompK35 mutant))?
**A.** 0.125 µg/mL

**Q.** And the MIC ([3]; no supplemental plasmid, Δ35/36 (ΔompK35/36 mutant))?
**A.** 1 µg/mL

**Q.** And the MIC ([3]; no supplemental plasmid, Δ36 (ΔompK36 mutant))?
**A.** 0.125 µg/mL

**Q.** What about the MIC ([3]; no supplemental plasmid, ΔramR mutant) of the same molecule?
**A.** 0.5 µg/mL

**Q.** What about the MIC ([3]; no supplemental plasmid, ΔramRΔ35 (ΔramRΔompK35 mutant)) of the same molecule?
**A.** 0.5 µg/mL

**Q.** What about the MIC ([3]; no supplemental plasmid, ΔramRΔ35/36 (ΔramRΔompK35/36 mutant)) of the same molecule?
**A.** 2 µg/mL

**Q.** What about the MIC ([3]; no supplemental plasmid, ΔramRΔ36 (ΔramRΔompK36 mutant)) of the same molecule?
**A.** 4 µg/mL
